Reference: US20150087967A1, “METHOD AND APPARATUS USING MAGNETIC RESONANCE IMAGING FOR TISSUE PHENOTYPING AND MONITORING” (Oregon Health & Science University, priority 2012, published 2015)

Test system: soft tissue sarcomas
Experiment: Phase I clinical trial in soft tissue sarcoma patients: MRI (DCE-MRI, DWI, RECIST) after two weeks of Sorafenib only treatment (TP1) versus before therapy (TP0)
Assay type: in vivo, human
Procedure: Patients with biopsy-proven, grade 2-3, deep, and >5 cm soft tissue sarcomas participated in a phase I clinical trial in which the vascular endothelial growth factor receptor (VEGFR) inhibitor, Sorafenib, was added to a preoperative chemoradiotherapy regimen. Research MRI studies were performed at time-point zero (TP0)—before therapy, TP1, after two weeks of Sorafenib only treatment, and TP2, after eight more weeks of treatment with Sorafenib plus chemoradiation therapy, followed by surgery and pathology review including estimation of tumor histologic necrosis. A total of eleven patients consented to the research MRI scans, with 9 of them having at least two DCE-MRI studies (at TP0 and TP1). In these 9 patients, five masses were located in the thigh, two in the calf, one in the knee, and one in the shoulder.
The MRI studies were performed using a 3T Siemens instrument with the body transmit and phased-array body matrix (combined with a spine matrix) receive RF coils. Following scout and axial T2-weighted MRI, sagittal diffusion-weighted imaging (DWI) was performed (in seven of the 9 patients) using a spin-echo single-shot EPI sequence with TE/TR=104/8000 ms, 24-36 cm FOV, 5 mm slice thickness with zero gap, 192×192 matrix size, and b values of 0, 500, and 1000 s/mm^2 applied in three orthogonal directions.
Subsequently, a 3D RF-spoiled gradient-echo sequence was used to acquire sagittal DCE-MRI data with 10 degree flip angle, TE/TR=[…], and 320×160 matrix size. […]
ADC trace maps were generated with manufacturer's DWI data processing software. […] The arterial input functions (AIFs) used for the quantitative analyses were directly measured from ROIs placed in a femoral artery (for thigh, knee, and calf tumors) and an axillary artery (for the shoulder mass). The whole tumor ROI DWI/DCE-MRI parameter values were calculated by averaging the ROI values from each of the image slices covering the entire tumor, weighted by the pixel numbers within the image slice ROIs. Pixel parameter values were analyzed with histograms and the amplitude and median values were obtained. […]

## CNC(=O)c1cc(Oc2ccc(NC(=O)Nc3ccc(Cl)c(C(F)(F)F)c3)cc2)ccn1 [Sorafenib]
% change at TP1 (two weeks of Sorafenib only) relative to TP0
  change in ADC (apparent diffusion coefficient): small
% change at TP1 (two weeks of Sorafenib only) relative to TP0, 9 patients
  change in tumor size (RECIST): small
Patients with grade 2-3 soft tissue sarcomas, after two weeks of Sorafenib only treatment (TP1)
  tumor vascular effect detected by DCE-MRI biomarkers: Tumor vascular shut-down induced by Sorafenib preceded cell death
